# From patent US10307413B2, “Tetrahydro- and dihydro-isoquinoline PRMT5 inhibitors and uses thereof” (Epizyme, Inc., priority 2013, dated 2019)
# Read-outs that look alike come from different tables or passages of the source.
# Tests used:
# [1] = target: PRMT5/MEP50 (Homo sapiens (Human), UniProt O14744); assay: PRMT5 Biochemical Assay (PRMT5/MEP50 enzyme assay on peptide substrate, 3H-SAM Flashplate)
# Summary of the method: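 Radiometric methylation of a biotin-tagged H4(1-15) peptide by human PRMT5/MEP50 from baculovirus/Sf9, with ³H-SAM incorporation read on streptavidin Flashplates. Buffer: Bicine pH 7.6, TCEP, BSG, Tween20; compound preincubated 30 min at 25 °C; stopped with 600 µM final unlabeled SAM. DMSO and SAH controls; IC50 from fitted % inhibition.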
# [2] = test system: Z-138 cell line; assay: Z-138 Proliferation Assay (Cell Titer Glo, 5 days); type: cell-based; settings: Homo sapiens, 120 h, Z-138 cells, 5 days, read-out: Proliferation EC50
# Summary of the method: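 Z-138 cells exposed 5 days at 37 °C, 5% CO2 to nine-point 3-fold dilutions (final top 20 μM, 0.2% DMSO), in triplicate. Viability read as ATP by CellTiter-Glo luminescence; IC50 from 4-parameter fit of normalized dose-response curves.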
# [3] = test system: symmetric di-methyl arginine in Z-138 cells; assay: Z-138 Methylation Assay (In Cell Western for symmetric di-methyl arginine and DNA content); type: cell-based; settings: Homo sapiens, read-out: ICW EC50
# Summary of the method: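 Z-138 cells (50,000 cells/mL) treated with compound 96 h at 37 °C, then fixed and stained for symmetric di-methyl arginine (800 nm) with DRAQ5 DNA counterstain (700 nm) on Licor Odyssey.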
# PRMT5/MEP50, sequence (O14744 other isoform, or with tags, fused parts or gaps): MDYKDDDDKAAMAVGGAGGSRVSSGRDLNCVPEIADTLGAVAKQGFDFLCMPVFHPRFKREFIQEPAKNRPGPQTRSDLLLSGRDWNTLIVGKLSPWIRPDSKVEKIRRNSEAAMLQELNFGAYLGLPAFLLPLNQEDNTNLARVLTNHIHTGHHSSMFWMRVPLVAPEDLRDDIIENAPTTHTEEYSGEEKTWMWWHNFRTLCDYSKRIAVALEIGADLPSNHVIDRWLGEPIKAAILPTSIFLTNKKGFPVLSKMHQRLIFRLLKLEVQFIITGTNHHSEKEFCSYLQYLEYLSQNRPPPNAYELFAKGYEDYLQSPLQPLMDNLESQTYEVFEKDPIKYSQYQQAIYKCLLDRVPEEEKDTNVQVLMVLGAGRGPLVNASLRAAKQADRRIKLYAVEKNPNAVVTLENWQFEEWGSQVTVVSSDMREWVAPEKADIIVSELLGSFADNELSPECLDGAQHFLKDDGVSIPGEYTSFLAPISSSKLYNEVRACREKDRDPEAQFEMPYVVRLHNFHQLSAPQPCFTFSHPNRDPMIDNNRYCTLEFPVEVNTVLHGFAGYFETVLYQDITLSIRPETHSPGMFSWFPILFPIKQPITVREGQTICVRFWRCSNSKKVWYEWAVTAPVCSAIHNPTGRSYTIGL
# PRMT5/MEP50, sequence (Q9BQA1 other isoform, or with tags, fused parts or gaps partner): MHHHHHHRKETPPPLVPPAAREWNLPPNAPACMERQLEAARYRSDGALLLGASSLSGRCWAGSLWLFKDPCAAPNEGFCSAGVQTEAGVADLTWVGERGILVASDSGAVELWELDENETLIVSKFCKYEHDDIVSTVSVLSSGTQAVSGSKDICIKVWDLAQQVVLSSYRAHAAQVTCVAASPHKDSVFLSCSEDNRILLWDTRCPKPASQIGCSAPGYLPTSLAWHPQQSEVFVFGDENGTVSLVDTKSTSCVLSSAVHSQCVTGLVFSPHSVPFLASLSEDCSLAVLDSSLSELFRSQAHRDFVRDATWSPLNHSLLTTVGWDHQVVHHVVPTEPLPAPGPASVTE
IC50 ([1]; PRMT5 biochemical assay) [nM],EC50 ([3]; In Cell Western methylation) [nM],IC50 [1] [nM],EC50 [3] [nM],SMILES,EC50 ([2]; Cell Titer Glo) [nM],EC50 [2] [nM]
< 100,< 100,–,–,O=C(NC[C@H](O)CN1CCc2ccccc2C1)c1cc(NC2CCN(C(=O)C3CCC3)CC2)ccn1 [Compound 566],< 100,–
< 100,< 100,–,–,CN(C)c1nc(NC2COC2)cc(C(=O)NC[C@H](O)CN2CCc3ccccc3C2)n1 [Compound 494],101 to 1000,–
< 100,< 100,–,–,CC(=O)N1CCC(Nc2cc(C(=O)NC[C@H](O)CN3CCc4ccccc4C3)cc(N3CCOCC3)n2)CC1 [Compound 611],< 100,–
< 100,101 to 1000,–,–,O=C(NC[C@H](O)CN1CCc2ccccc2C1)c1cn2nc(Cl)ccc2n1 [Compound 404],10000 to 50000,–
–,–,101 to 1000,1000 to 10000,"O=C(NCC(O)CN1CCc2ccccc2C1)c1cccc(C2CCCN2)c1 (stereo not drawn) [Compound 42, N-(3-(3,4-dihydroisoquinolin-2(1H)-yl)-2-hydroxypropyl)-3-(pyrrolidin-2-yl)benzamide]",–,> 20000
< 100,< 100,–,–,CC(O)(CNC(=O)c1cc(NC2CCN(C(=O)C3CC3)CC2)ncn1)CN1CCc2ccccc2C1 (stereo not drawn) [Compound 650],1000 to 10000,–
< 100,< 100,–,–,O=C(NC[C@H](O)CN1CCc2ccccc2C1)c1cc(NC2CN(C(=O)C3CC3)C2)ccn1 [Compound 636],< 100,–
< 100,< 100,–,–,CC(=O)N(C)[C@H]1CC[C@H](Nc2cc(C(=O)NC[C@H](O)CN3CCc4ccccc4C3)ncn2)CC1 [Compound 671],< 100,–
< 100,< 100,–,–,CC(=O)[C@H]1CC[C@H](Nc2cc(C(=O)NC[C@H](O)CN3CCc4ccccc4C3)ncn2)CC1 [Compound 600],1000 to 10000,–
–,–,101 to 1000,< 100,COCCNc1cc(C(=O)NC[C@H](O)CN2CCc3ccccc3C2)ncn1 [Compound 352],–,1000 to 10000
–,–,< 100,< 100,O=C(NC[C@H](O)CN1CCc2ccccc2C1)c1ccc(OCCN2CCC2)cc1 [Compound 388],–,1000 to 10000
< 100,< 100,–,–,CS(=O)(=O)N1CCN(c2nc(NC3COC3)cc(C(=O)NC[C@H](O)CN3CCc4ccccc4C3)n2)CC1 [Compound 499],101 to 1000,–
< 100,< 100,–,–,CC(C)CC(=O)N1CCC(Nc2cc(C(=O)NC[C@H](O)CN3CCc4ccccc4C3)ncn2)CC1 [Compound 409],< 100,–
< 100,< 100,–,–,CC(C)(C)C(=O)N1CC(Nc2cc(C(=O)NC[C@H](O)CN3CCc4ccccc4C3)ncn2)C1 [Compound 424],101 to 1000,–
101 to 1000,> 1000,–,–,CCS(=O)(=O)CCNCC1CN2C=NC(C(=O)NC[C@H](O)CN3CCc4ccccc4C3)=CC2=N1 (stereo partly drawn) [Compound 617],> 5000,–
< 100,< 100,–,–,CNC(=O)[C@H]1C[C@H](Nc2cc(C(=O)NC[C@H](O)CN3CCc4ccccc4C3)ncn2)C1 [Compound 506],101 to 1000,–
< 100,< 100,–,–,COCCN(C)c1cc(NC2CCN(C(C)=O)CC2)cc(C(=O)NC[C@H](O)CN2CCc3ccccc3C2)n1 [Compound 672],< 100,–
–,–,< 100,< 100,CC(C)N(C)CCOc1ccc(C(=O)NC[C@H](O)CN2CCc3ccccc3C2)cc1 [Compound 389],–,1000 to 10000
< 100,< 100,–,–,CC(C)(O)CN1CCC(Nc2cc(C(=O)NC[C@H](O)CN3CCc4ccccc4C3)ncn2)CC1 [Compound 579],101 to 1000,–
< 100,< 100,–,–,CC(C)C(=O)N1CC(Nc2cc(C(=O)NC[C@H](O)CN3CCc4ccccc4C3)ccn2)C1 [Compound 489],< 100,–
< 100,< 100,–,–,Cc1cccc2c1CN(C[C@@H](O)CNC(=O)c1cc(NC3COC3)ncn1)CC2 [Compound 673],1000 to 10000,–
–,–,101 to 1000,101 to 1000,O=C(NC[C@H](O)CN1CCc2ccccc2C1)c1cncc(NC2COC2)n1 [Compound 366],–,> 20000
< 100,< 100,–,–,N[C@H]1CC[C@H](Nc2cc(C(=O)NC[C@H](O)CN3CCc4ccccc4C3)ncn2)CC1 [Compound 595],> 5000,–
< 100,< 100,–,–,O=C(NC[C@H](O)CN1CCc2ccccc2C1)c1cc(NC2COC2)nc(N2CCCCC2)n1 [Compound 414],< 100,–
–,–,< 100,< 100,CN(C)CCOc1ccc(C(=O)NC[C@H](O)CN2CCc3ccccc3C2)cc1 [Compound 384],–,1000 to 10000
